Source: patent US6140327A, “Morpholino-n-ethyl ester derivative of an indole sPLA2 inhibitor” (Eli Lilly and Company, priority 1999, dated 2000)

Experiments:
[1] = molecular target: recombinant human secreted phospholipase A2; details: cited from earlier work
[2] = molecular target: recombinant human secreted phospholipase A2; details: guinea pig lung tissue; sPLA2 10 ug/ml; read-out: Tissue test secreted PLA2 Apparent KB; cited from earlier work
[3] = Monkey Pharmacokinetic Study (bioavailability); format: in vivo; details: conclusion compared with other esters of the parent and the 2-methyl homolog, oral administration
Method: Plasma was assayed by HPLC to measure concentrations of the different sPLA2 inhibitors (measured as free acids).
Cmax (maximal plasma concentrations), and AUC values were determined from the mean plasma concentration-time profiles.

SMILES	IC50 ([1]; chromogenic assay, 3-4 tests, read-out: Inhibition of human secreted PLA2 IC50 ± mean deviation (3-4 tests))	inhibiting sPLA2 (conclusion in words) ([1]; conclusion of Table I)	Kb [2]	bioavailability (in words) [3]	bioavailability (in words) ([3]; listed as formula (I))
CCc1c(C(=O)C(N)=O)c2c(OCC(=O)O)cccc2n1Cc1ccccc1 [formula (II), ((3-(2-amino-1,2-dioxoethyl)-2-ethyl-1-(phenylmethyl)-1H-indol-4-yl)oxy)acetic acid]	9 ± 1.73 nM	highly active in inhibiting sPLA2	88.7 ± 18.2 nM		
CCc1c(C(=O)C(N)=O)c2c(OCC(=O)OCCN3CCOCC3)cccc2n1Cc1ccccc1 [Compound 1, ((3-(2-amino-1,2-dioxoethyl)-2-ethyl-1-(phenylmethyl)-1H-indol-4-yl)oxy)acetic acid morpholino-N-ethyl ester]				unexpectedly more bioavailable than other esters of the parent sPLA2 inhibitor of formula II and also more bioavailable than the 2-methyl homolog of the parent sPLA2 inhibitor of formula II	highly bioavailable upon oral administration compared to closely related ester type prodrugs
